Reference: US10253039B2, “Inhibitors of bacterial DNA gyrase with efficacy against gram-negative bacteria” (priority 2014, dated 2019)
In brackets after ≈: the same amount, converted by molar mass.

Tests used:
Format in all cases: cell-based
E. coli BW25113 = assay: MIC, microdilution in 96-well plates; details: Escherichia coli, BW25113, B: E. coli BW25113; read-out: MIC
How it was run: (§1)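 Determined via CLSI-guided microdilution: triplicate two-fold compound gradients, a DMSO vehicle column, and cultures seeded 1:10000 in LB from growing cells. Incubation lasted 16-18 hours at 37° C. under shaking, with MIC called as the lowest concentration lacking visible growth.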

Edwardsiella tarda = assay: MIC, microdilution in 96-well plates; details: D: Edwardsiella tarda
How it was run: as §1

Streptococcus agalactiae = assay: MIC, 20-strain panel
How it was run: as §1

[1] = tested on: Klebsiella pneumoniae subsp. pneumoniae; assay: MIC, 20-strain panel; details: E: Klebsiella pneumoniae subsp. pneumoniae
How it was run: as §1

[2] = tested on: Salmonella enterica subsp. enterica typhimurium; assay: MIC, 20-strain panel; details: F: Salmonella enterica subsp. enterica Typhimurium
How it was run: as §1

[3] = tested on: Staphylococcus epidermidis; assay: MIC, 20-strain panel
How it was run: as §1

[4] = tested on: Staphylococcus aureus subsp. aureus; assay: MIC, 20-strain panel; details: H: Staphylococcus aureus subsp. aureus, read-out: MIC
How it was run: as §1

Streptococcus pyogenes = assay: MIC, 20-strain panel
How it was run: as §1

Shigella flexneri = assay: MIC, 20-strain panel; details: G: Shigella flexneri
How it was run: as §1

[5] = tested on: Staphylococcus saprophyticus subsp. saprophyticus; assay: MIC, 20-strain panel
How it was run: as §1

E. coli JW5503 (deltolC) = assay: MIC, 20-strain panel; details: Escherichia coli, C: E. coli JW5503 (deltolC)
How it was run: as §1

E. coli MG1655 = assay: MIC, 20-strain panel; details: Escherichia coli, MG1655, A: E. coli MG1655; read-out: MIC
How it was run: as §1

Row | Compound | MIC (E. coli BW25113) [µg/mL] | MIC (Edwardsiella tarda) [µg/mL] | MIC (Streptococcus agalactiae) [µg/mL] | MIC [1] [µg/mL] | MIC [2] [µg/mL] | MIC [3] [µg/mL] | MIC [4] [µg/mL] | MIC (Streptococcus pyogenes) [µg/mL] | MIC (Shigella flexneri) [µg/mL] | MIC [5] [µg/mL] | MIC (E. coli JW5503 (deltolC)) [µg/mL] | MIC (E. coli MG1655) [µg/mL]
1 | O=S(=O)(N[C@@H]1CCN(Cc2ccc(OCC(F)F)cc2)C1)c1cccc(C(F)(F)F)c1 [Compound 64] | > 8 | > 8 | > 8 | > 8 | 4 (≈ 8.61 µM) | > 8 | > 8 | > 8 | > 8 | > 8 | 0.25 (≈ 0.538 µM) | > 8
2 | O=S(=O)(N[C@@H]1CCN(Cc2ccc(OC3CC3)cc2)C1)c1cc(S(=O)(=O)c2ccccc2)cs1 [Compound 65] | > 8 | > 8 | > 8 | > 8 | > 8 | > 8 | > 8 | > 8 | > 8 | > 8 | > 8 | > 8
3 | COc1ccccc1-c1ccc(CN2CC[C@@H](NS(=O)(=O)c3cccc(C(F)(F)F)c3)C2)cc1 [Compound 66] | > 8 | > 8 | > 8 | > 8 | > 8 | 8 (≈ 16.3 µM) | > 8 | > 8 | > 8 | > 8 | 4 (≈ 8.15 µM) | > 8
4 | N#Cc1cccc(S(=O)(=O)N[C@@H]2CCN(Cc3ccc(-c4ccncc4)cc3)C2)c1 [Compound 67] | > 8 | > 8 | > 8 | > 8 | > 8 | > 8 | > 8 | > 8 | > 8 | > 8 | 4 (≈ 9.56 µM) | > 8
5 | CC(=O)c1cc(S(=O)(=O)N[C@@H]2CCN(Cc3ccc(-c4ccccc4)cc3)C2)ccc1C [Compound 68] | > 8 | > 8 | > 8 | > 8 | > 8 | 8 (≈ 17.8 µM) | > 8 | > 8 | > 8 | > 8 | 8 (≈ 17.8 µM) | > 8
6 | O=S(=O)(N[C@@H]1CCN(Cc2ccc(-c3ccccc3Cl)cc2)C1)c1cccc(C(F)(F)F)c1 [Compound 69] | > 8 | > 8 | > 8 | > 8 | > 8 | 4 (≈ 8.08 µM) | > 8 | ~8 (≈ 16.2 µM) | > 8 | > 8 | 8 (≈ 16.2 µM) | > 8
7 | N#Cc1cccc(S(=O)(=O)N[C@@H]2CCN(Cc3ccc(-c4ccccc4Cl)cc3)C2)c1 [Compound 70] | > 8 | > 8 | > 8 | > 8 | > 8 | 8 (≈ 17.7 µM) | > 8 | > 8 | > 8 | > 8 | 1 (≈ 2.21 µM) | > 8
8 | O=S(=O)(N[C@@H]1CCN(Cc2ccc(-c3ccccc3)cc2)C1)c1cc(F)cc(C(F)(F)F)c1 [Compound 71] | > 8 | > 8 | > 8 | > 8 | > 8 | > 8 | > 8 | 8 (≈ 16.7 µM) | > 8 | > 8 | 4 (≈ 8.36 µM) | > 8
9 | Cc1ccc(S(C)(=O)=O)cc1S(=O)(=O)N[C@@H]1CCN(Cc2ccc(OC(C)C)cc2)C1 [Compound 72] | > 8 | > 8 | > 8 | > 8 | > 8 | > 8 | > 8 | > 8 | > 8 | > 8 | > 8 | > 8
10 | Cc1ccc(S(C)(=O)=O)cc1S(=O)(=O)N[C@@H]1CCN(Cc2ccc(-c3ccccc3)cc2)C1 [Compound 73] | > 8 | > 8 | > 8 | > 8 | > 8 | > 8 | > 8 | > 8 | > 8 | > 8 | 4 (≈ 8.25 µM) | > 8
11 | COc1ccc(-c2ccc(CN3CC[C@@H](NS(=O)(=O)c4cccc(OC(F)(F)F)c4)C3)cc2)cc1 [Compound 74] | > 8 | > 8 | > 8 | > 8 | > 8 | > 8 | > 8 | > 8 | > 8 | > 8 | 8 (≈ 15.8 µM) | > 8
